{"source": "patent US20200368322A1", "about": "“METHODS OF IDENTIFYING AND USING AGENTS FOR TREATING DISEASES ASSOCIATED WITH INTESTINAL BARRIER DYSFUNCTION” (Yeda Research and Development Co. Ltd., priority 2018, published 2020)", "key": {"[1]": {"test": "Intestinal inflammatory state (H&E staining, colonic cytokine gene expression)", "assay_type": "in vivo, mouse", "conditions": "STZ-treated mice vs controls"}, "[2]": {"tested_on": "intestinal epithelial adherence junctions", "test": "Immunofluorescence staining of colon junctions (E-cadherin, ZO-1)", "assay_type": "in vivo, mouse", "description": "(§1) Colon samples were extensively washed and fixed and 4% paraformaldehyde. Samples were washed, paraffin-embedded and sectioned. Paraffin sections were de-paraffinized and antigen-retrieved in 10 mM sodium citrate, pH 6. Samples were incubated in PBS containing 20% (v/v) normal horse serum and 0.2% (v/v) Triton X-100 for 1 h; and then incubated over-night with rabbit anti-ZO-1 (Invitrogen 40-2200) primary antibody or rabbit anti E-cadherin (Cell Signaling 24E10). Sections were washed and incubated for 1 hour with alexa 488-conjugated donkey anti Rabbit antibody. Alternatively, sections were stained with Ki67 to indicate proliferating cells."}, "[3]": {"tested_on": "intestinal epithelial cells", "test": "Epithelial turnover (Ki67 staining, cell viability by flow cytometry)", "assay_type": "in vivo, mouse", "conditions": "STZ-treated mice vs controls", "description": "as §1\nFor viability measurements, isolated intestinal epithelial cells were stained with EpCAM, CD45 and propidium iodide. Cells were analyzed on a BD-LSRFortessa cytometer. All antibodies were obtained from Biolegend."}, "[4]": {"tested_on": "colonic epithelial barrier", "test": "Trans-epithelial flux (Ussing chamber, FITC-dextran)", "assay_type": "in vivo, mouse", "conditions": "STZ-treated mice, steady-state conditions", "description": "On the day of the assay, 4 kDa fluorescein isothiocyanate (FITC)-dextran was dissolved in phosphate buffered saline (PBS) to a concentration of 80 mg/ml. Mice were fasted for 4 hours prior to gavage with 150 μl dextran. Mice were anesthetized 3 hours following gavage and blood was collected, centrifuged at 1,000×g for 12 min at 4° C. Serum was collected and fluorescence was quantified at an excitation wavelength of 485 nm and emission wavelength of 535 nm.\nEpithelial resistance was measured using an Ussing chamber system (Warner Instruments P2300) according to the manufacturer's instructions. In brief, EasyMount chambers were calibrated, colonic tissue was excised from mice and immediately mounted, and voltage clamp recordings were performed. Tissues were maintained at 37° C. in physiological salt solution throughout the duration of the recording."}, "[5]": {"test": "Serum glucose measurement", "assay_type": "in vivo, mouse", "description": "(§2) To induce hyperglycemia, streptozotocin (STZ, Sigma-Aldrich) was diluted freshly in PBS and injected i.p. at 100 mg/kg at two consecutive days. Control mice were injected with PBS. Serum glucose measurements were performed using glucose strips (Perrigo). Hyperglycemic mice were used for further experimentation 2-3 weeks after STZ injection). For continuous insulin administration, ALZET osmotic pumps were used. Pumps were implanted subcutaneously in the back of the mice for 4 weeks. Insulin was delivered at 0.25 U/day. 2-deoxyglucose (2-DG) was injected i.p. twice daily at 5 mg per injection as previously described (47). Injections were performed for 10 consecutive days. Leptin antagonist was administered daily by intraperitoneal injection of 25 mg/kg as previously described (18)."}, "Citrobacter rodentium [6]": {"tested_on": "Citrobacter rodentium", "test": "Citrobacter rodentium infection (bioluminescence, tissue CFU), Example 1", "assay_type": "in vivo, mouse", "description": "as §2\nMice were infected by oral gavage with 200 μl of an overnight culture of LB containing approximately 1×10^9 colony-forming units (CFU) of a kanamycin-resistant, luciferase-expressing derivative of C. rodentium DBS100 (ICC180) as previously described (16). For in vivo bioluminescent imaging, mice were anesthetized with Ketamine/Xylazine. Bioluminescence was quantified using an IVIS2000 instrument and Living Image software (Perkin Elmer). For ex vivo luminescence analysis, colons were resected, extensively washed from all fecal matter and immediately imaged. For CFU counts, tissues were collected, weighed and homogenized in 1 ml of sterile PBS. Tissue homogenates were serially diluted in PBS and plated on to LB kanamycin plates, incubated overnight at 37° C., and bacterial colonies were enumerated the following day, normalizing them to the tissue weight."}, "Salmonella Typhimurium": {"tested_on": "Salmonella Typhimurium", "test": "Salmonella Typhimurium infection", "assay_type": "in vivo, mouse", "conditions": "STZ-treated mice, oral infection", "description": "For oral infections, mice were pretreated with 50 mg/ml streptomycin one day prior to oral gavage of 10^8 CFU of SPI-II-deficient Salmonella Typhimurium (49). For systemic infections, mice were injected 10^4 CFU of Salmonella Typhimurium by intraperitoneal injection as previously described (50). One week after infection, colonization was assessed by bacterial plating on LB streptomycin plates, incubated overnight at 37° C., and bacterial colonies were enumerated the following day, normalizing them to the tissue weight."}, "[7]": {"tested_on": "focal adhesions of Caco2 cells", "test": "Caco2 cell-matrix focal adhesions (paxillin staining)", "assay_type": "cell-based, human", "conditions": "10 mM acetyl-proline, 1 mM putrescine, 10 mM histamine, 5 mM spermine", "description": "(§3) CaCo-2 cells were purchased from ATCC. Cells were routinely grown in regular tissue culture medium (DMEM, 10% FCS, penicillin/streptomycin, GlutaMAX). For experiments with differing glucose concentrations, cells were routinely cultured in low-glucose DMEM (1 g/l glucose). Cells were seeded onto 96-well glass-bottom plates coated with either fibronectin or collagen 70 000 cells/well and allowed to grow for 24 hours to form confluent monolayer before indicated treatments.\n(§4) For high resolution images of manually selected representative fields, a DeltaVision wide field fluorescent microscope (GE Healthcare) equipped with 40×UPlanFLN or 60×/1.42 PlanApo N oil objective (Olympus) was used. For multi-well plate scanning, the following automated imaging stations were used: DeltaVision microscope with plate scanning regiment, Hermes imaging station (IDEA bio-Medical) or ImagExpress microXL imaging station (Molecular Devices) equipped by 40× air objectives. In all cases in order to cover the curvature of apical surface of epithelial monolayer 5 μm thick z-stack was acquired around the tight junction plane (identified by best focus algorithm) and resulting image was generated as a maximum projection of all optical sections."}, "Caco2 cells [8]": {"tested_on": "Caco2 cells", "conditions": "10 mM histamine"}, "[9]": {"tested_on": "tight junctions of Caco2 cells", "test": "Caco2 tight junction morphology (cingulin or ZO-1 staining, tortuosity)", "assay_type": "cell-based, human", "description": "as §3, §4\nCell images were segmented using Morphological Segmentation ImageJ plug-in and junction tortuosity was calculated as a ratio between junction length and Euclidian distance between its ends."}, "Caco2 cells [10]": {"tested_on": "Caco2 cells", "test": "Traction force microscopy", "assay_type": "cell-based, human", "conditions": "Caco2 islands on polyacrylamide hydrogels, 24 hours treatment", "description": "SoftTrac 6 well plates with pre-made collagen coated 12 kPa hydrogels containing embedded 0.2 μm fluorescent beads were purchased from Matrigen. 200,000 cells per well were plated and allowed to grow for 24 hours to form epithelial islands, treated with the indicated metabolite for another 24 hours and live-imaged using DeltaVision microscope equipped with environmental chamber. After acquisition of cell and fluorescent bead images in steady state conditions, cells were detached with trypsin and imaging of beads was repeated in a relaxed state. Displacement map generation and force calculations were performed using MatLab script described in Butler et al. Am J Physiol Cell Physiol. 2002."}, "Citrobacter rodentium [11]": {"tested_on": "Citrobacter rodentium", "assay_type": "in vivo, mouse", "conditions": "putrescine plus 30 mg/ml taurine in drinking water", "description": "For putrescine treatment, mice received putrescine by oral gavage with a dose of 200 mg/kg twice daily for 10 days prior to and during DSS treatment or Citrobacter rodentium infection.\nA kanamycin-resistant and luciferase-expressing derivative of Citrobacter rodentium DBS100 (ICC180) was used for infection as previously described (Thaiss et al., Science. 2018 Mar. 23; 359(6382):1376-1383).\nMice were infected with 200 μl solution containing approximately 1×10^9 colony-forming units (CFU) of overnight cultured bacteria by oral gavage. Infection was monitored by enumerating stool CFU and measuring abdominal bioluminescent. For in vivo bioluminescent imaging, mice were anesthetized and bioluminescence was measured using an IVIS2000 instrument and Living Image software (Perkin Elmer). For ex vivo luminescence quantification, the whole colons were dissected, extensively washed from all luminal contents, longitudinally cut open and immediately imaged. For CFU counts, stool or tissues were collected, weighed and homogenized in sterile phosphate buffered saline (PBS−/−). Homogenates were then serially diluted in PBS−/− and plated on LB kanamycin plates, incubated overnight at 37° C. Bacterial CFUs were counted the next day, normalizing them to the stool or tissue weight."}, "intestinal microbiota": {"tested_on": "intestinal microbiota", "test": "Taxonomic microbiota analysis (16S rDNA sequencing)", "assay_type": "in vivo, mouse", "conditions": "hyperglycemic (STZ-treated) mice, insulin treatment", "description": "Frozen fecal samples were processed for DNA isolation using the MoBio PowerSoil kit according to the manufacturer's instructions. For the 16S rRNA gene PCR amplification, 1 ng of the purified fecal DNA was used for PCR amplification. Amplicons spanning the variable region V3/4 of the 16S rRNA gene were generated by using primers: Fwd 5′-[…]-3′ (SEQ ID NO: 1), Rev 5′-[…]-3′ (SEQ ID NO: 2). The reactions were subsequently pooled and cleaned (PCR clean kit, Promega), and the PCR products were then sequenced on an Illumina MiSeq with 500 bp paired-end reads. The reads were then processed using the QIIME analysis pipeline as described (55, 56). In brief, fasta quality files and a mapping file indicating the barcode sequence corresponding to each sample were used as inputs, reads were split by samples according to the barcode, taxonomical classification was performed using the RDP-classifier, and an OTU table was created. Closed-reference OTU mapping was employed using the Greengenes database. Rarefaction was used to exclude samples with insufficient count of reads per sample. Sequences sharing 97% nucleotide sequence identity in the 16S region were binned into operational taxonomic units (97% ID OTUs). For beta-diversity, unweighted UniFrac measurements were plotted according to the two principal coordinates based on 10,000 reads per sample. […]"}, "[12]": {"tested_on": "microbial pattern recognition receptor (PRR) ligands", "test": "Quantification of microbial products at systemic sites (PRR reporter cell lines)", "assay_type": "in vivo, mouse", "conditions": "STZ-treated mice given the agent (insulin 0.25 U per day; 2-DG i.p. twice daily 5 mg)", "description": "as §2, with “(18). The following PRR reporter cell lines were obtained from Invivogen (HEK-Blue TLR and NLR reporter cell lines): TLR2, TLR3, TLR4, TLR5, TLR7, TLR9, NOD1, NOD2. Extracts from spleen, liver, and serum were homogenized and added to reporter cell lines incubated with HEK-Blue detection medium (Invivogen) according to the manufacturer's instructions.” for “(18).”"}, "[13]": {"conditions": "mice treated with the agent alone"}}, "note": "Entries after “also recorded” stand apart in the source; their conditions may differ."}
{"molecule": "CN(N=O)C(=O)N[C@H]1C(O)O[C@H](CO)[C@@H](O)[C@@H]1O", "note": "(mixture of isomers) [STZ, streptozotocin]", "values": [{"measurement": "inflammatory state in the intestine", "setting": "[1]", "result": "did not provoke an overt inflammatory state"}, {"measurement": "intestinal epithelial adherence junctions", "setting": "[2]; STZ-treated mice, steady-state conditions", "result": "dysfunction of intestinal epithelial adherence junctions"}, {"measurement": "epithelial proliferation or cell death", "setting": "[3]", "result": "not affected"}, {"measurement": "trans-epithelial flux", "setting": "[4]", "result": "enhanced trans-epithelial flux"}, {"measurement": "blood glucose levels", "setting": "[5]; [13]", "result": "hyperglycemia was induced"}, {"measurement": "C. rodentium infection and systemic spread", "setting": "Citrobacter rodentium [6]; [13]", "result": "severe C. rodentium infection and systemic translocation"}, {"measurement": "intestinal luminal growth of Salmonella", "setting": "Salmonella Typhimurium", "result": "comparable to vehicle-treated controls"}, {"measurement": "systemic colonization by Salmonella", "setting": "Salmonella Typhimurium", "result": "enhanced systemic colonization"}]}
{"molecule": "NCCc1c[nH]cn1", "note": "[histamine]", "values": [{"measurement": "focal adhesions size", "setting": "[7]", "result": "increase of focal adhesions size"}, {"measurement": "apical actin-enriched structures", "setting": "Caco2 cells [8]", "result": "assembly of actin fibers in the same plane where tight junctions are located"}, {"measurement": "recovery of the TJs after washout", "setting": "[9]; CaCo2 cells pretreated 24 hrs with disruptor, then regular culture medium for 24 hours", "result": "nearly complete recovery of the TJs"}, {"measurement": "TJ structure after disruptor treatment", "setting": "[9]; CaCo2 cells, 24 hrs, LPS 300 ng/ml, Histamine 10 mM, putrescine 1 mM", "result": "pronounced TJ disruption"}, {"measurement": "effect on tight junctions in metabolite screen", "setting": "[9]; Caco2 cells", "result": "Disruption"}, {"measurement": "tight junction disruption phenotype (type 1 zipper-like, type 2 flower-like)", "setting": "[9]; Caco2 cells, known IBD mediators", "result": "type 2"}, {"measurement": "tight junction morphology", "setting": "[9]; Caco2 cells, 10 mM acetyl-proline, 1 mM putrescine, 10 mM histamine, 5 mM spermine", "result": "distortion of tight junctions geometry; also recorded: distortion of tight junction morphology"}, {"measurement": "tight junction phenotype in combination with LPS", "setting": "[9]; Caco2 cells, type 2 disruptor plus LPS", "result": "double effect"}, {"measurement": "forces applied to the substrate (cell contractility)", "setting": "Caco2 cells [10]", "result": "increases cell contractility"}]}
{"molecule": "NCCS(=O)(=O)O", "note": "[taurine]", "values": [{"measurement": "disruptive effect of putrescine in mice with C. rodentium infection", "setting": "Citrobacter rodentium [11]", "result": "restoration of the disruptive effect of putrescine"}, {"measurement": "recovery of TJ structure on replacement of disruptors with stabilizer", "setting": "[9]; CaCo2 cells pretreated with LPS, histamine or putrescine, even in the presence of the disruptors", "result": "full recovery of TJ structure"}, {"measurement": "effect on tight junctions in metabolite screen", "setting": "[9]; Caco2 cells", "result": "Stabilization"}, {"measurement": "tight junction distortion caused by LPS", "setting": "[9]; Caco2 cells, 10 mM taurine, 1 mM tryptamine, 10 mM L-homo-serine, in combination with LPS", "result": "abolish tight junction distortion caused by LPS treatment alone"}]}
{"molecule": "insulin", "values": [{"measurement": "taxonomic change in the configuration of the intestinal microbiota", "setting": "intestinal microbiota", "result": "corrected"}, {"measurement": "loss of adherence junction integrity", "setting": "[2]; STZ-treated mice given the agent", "result": "prevented"}, {"measurement": "serum glucose levels", "setting": "[5]; STZ-treated mice, 0.25 U per day insulin via pumps for 4 weeks", "result": "restored normoglycemic levels"}, {"measurement": "enhanced C. rodentium growth and pathogenic translocation / host defense against C. rodentium", "setting": "Citrobacter rodentium [6]; STZ-treated mice given the agent (insulin 0.25 U per day; 2-DG i.p. twice daily 5 mg)", "result": "prevented"}, {"measurement": "systemic dissemination of microbial products", "setting": "[12]", "result": "prevented"}]}
